The results in this text go back to patent US8741645B2, “Test kit comprising a culture instrument with a cell pattern and a gel suitable to embed cell pattern” (Dai Nippon Printing Co., Ltd., priority 2006, dated 2014).

Type in all cases: cell-based
Experiment [1] has as its system bovine aortic vascular endothelial cells. The experiment in a line: Lumen formation test (cell shrinkage), cell pattern sandwiched between substrate and GFR Matrigel (configuration of FIG. 3). Further details: key: ∘: Large inhibition effect; Δ: Small inhibition effect; x: No inhibition effect. As to conditions: inhibitor previously added; shrinkage of multiple cells observed, GFR Matrigel. Here is the method:
An autoclave-sterilized substrate was arranged within a culture container and then an appropriate amount of MEM medium containing 5% fetal calf serum was added. 2.0×10^5 bovine aortic vascular endothelial cells were seeded per substrate. After 72 hours of culture, cells adhered only to oxidatively degraded regions and reached confluency on the lines each having a width of 60 μm.
200 μl of ice-cooled Growth Factor Reduced (GFR) Matrigel (Becton, Dickinson and Company) was spread over a culture container and then allowed to stand at room temperature for approximately 1 minute. The substrate was gently placed with its cell adhesion face down onto the matrigel. The resultant was allowed to stand for approximately 5 minutes while maintaining this condition. After complete gelling, MEM medium containing 5% fetal calf serum was added and then the substrate was immersed in the medium. The culture container was transferred into an incubator (37° C., 5% CO2) and then cells were cultured while being sandwiched between a substrate and matrigel. […] This is a phenomenon that is characteristically observed when vascular endothelial cells undergo lumen formation in response to differentiation signals coming from the extracellular matrix. When a vascularization inhibitor had been previously added to the three-dimensional culture system, shrinkage of multiple cells was inhibited or not inhibited according to the relevant pharmacologic action (Table 1). This means that the effect of a drug on lumen formation can be efficiently tested via observation of cell shrinkage that is observed at the initial stage of differentiation. This test method could also be performed for normal human umbilical vein endothelial cells in completely the same manner.

In experiment [2] the test system is Normal human (adult) dermal fibroblasts. Briefly: Cell migration and proliferation of linear cell pattern embedded in collagen gel (configuration of FIG. 3). As to conditions: 10 μM in culture solution; observed at 3, 6, 9 and 21 hours; compared with culture solution and DMSO systems. Here is the method: The above dish was sterilized with 70% ethanol. Normal human (adult) dermal fibroblasts (KF-4109, Cascade Biologics) dispersed in a culture solution (basal medium M-106-500S, additive agent KE-6350, and Cascade Biologics/KURABO) was seeded at 4×10^5 cells per dish. Cells were cultured using an incubator under conditions of 37° C. and 5% CO2 for 18 hours. A linear pattern formed by cells that had adhered was obtained.
Cell aggregates were embedded into gel that had been prepared using the collagen gel kit used in Example 5 and then three-dimensional culture was performed with the configuration of FIG. 3. After 30 minutes of gelling at 37° C., three types of culture were performed using (1) a system containing the above culture solution, (2) a system containing a culture solution prepared by adding 10 μM inhibitor PP2 to the above culture solution, and (3) a system containing a culture solution containing DMSO with the same concentration as that of DMSO (used as a solvent for preparing 1 mM stock solution of PP2) contained in the above-prepared culture solution containing PP2.

In experiment [3] the test system is bovine aortic vascular endothelial cells. Briefly: Vascularization test, three-dimensional culture of cell pattern in collagen gel (configuration of FIG. 2). As to conditions: 50 μM added to three-dimensional culture system, medium with proliferation factors. Here is the method:
An autoclave-sterilized substrate was arranged within a culture container and then an appropriate amount of MEM medium containing 5% fetal calf serum was added. 2.0×10^5 bovine aortic vascular endothelial cells were seeded per substrate. After 48 hours of culture within an incubator (37° C., 5% CO2), cells adhered only to oxidatively degraded regions and reached confluency on the lines each having a width of 60 μm.
A collagen solution was prepared on ice using a collagen gel culture kit (Cellmatrix I-A, Nitta gelatin). 500 μl of the solution was spread flatly over a 28 mm×33 mm well, followed by 10 minutes of gelling at 37° C. 2 ml of MEM medium containing 5% fetal calf serum was added to the gel. The substrate was caused to sink while upside-down in the medium, so that cells that had adhered to the substrate were caused to come into contact with collagen gel at the bottom. After 4 hours of culture within an incubator, the substrate was carefully removed using a pair of tweezers. […] The medium was removed by suction, 250 μl of the collagen solution was applied in layers to the cells, and then gelling was performed at 37° C. for 10 minutes. […]

Turning to `N=C(N)NC(=O)c1nc(Cl)c(N)nc1N` [Amiloride], in experiment [1], the “Inhibition effect (inhibiting lumen formation)” value (shortened to “Inhibition effect”) is “x”.

Consider `O=c1cc(N2CCOCC2)oc2c(-c3ccccc3)cccc12` [LY294002], for which the “Inhibition effect” value in experiment [1] is reported as “Δ”.

With `CN(C)c1ccc(O)c2c1C[C@H]1C[C@H]3[C@H](N(C)C)C(O)=C(C(N)=O)C(=O)[C@@]3(O)C(O)=C1C2=O` [Minocycline], the “Inhibition effect” value in experiment [1] is recorded as “x”.

On to `CC(C)(C)n1nc(-c2ccc(Cl)cc2)c2c(N)ncnc21` [PP2], for which, in experiment [1], the “Inhibition effect” value is “∘”. In addition, in experiment [2], the cell migration result was “significantly suppressed” and the cell proliferation result is given as “significantly suppressed”.

In the case of `Cc1ccc(C(=O)Nc2ccc(S(=O)(=O)O)c3cc(S(=O)(=O)O)cc(S(=O)(=O)O)c23)cc1NC(=O)c1cccc(NC(=O)Nc2cccc(C(=O)Nc3cc(C(=O)Nc4ccc(S(=O)(=O)O)c5cc(S(=O)(=O)O)cc(S(=O)(=O)O)c45)ccc3C)c2)c1` [Suramin], the vascularization entry in experiment [3] is “completely inhibited”. Also, in experiment [1], the “Inhibition effect” value is on record as “x”.

Consider `C[C@@H](N)[C@H]1CC[C@H](C(=O)Nc2ccncc2)CC1` [Y27632], for which, in experiment [1], the “Inhibition effect” value is “x”.
